# Assay results reported in ChEMBL document CHEMBL1158221, “Nigranoic acid, a triterpenoid from Schisandra sphaerandra that inhibits HIV-1 reverse transcriptase” (J Nat Prod, 1996).
# pIC50: −log10 of the molar value.
# Columns and labels:
# [1] = target: Human immunodeficiency virus type 1 reverse transcriptase (Human immunodeficiency virus 1) (UniProt Q72547); test: Inhibition of HIV1 reverse transcriptase at 200 ug/ml
# [2] = target: Human immunodeficiency virus type 1 reverse transcriptase (Human immunodeficiency virus 1, UniProt Q72547); test: Inhibition of HIV1 reverse transcriptase
# [3] = system: Human immunodeficiency virus 2; test: Inhibition of HIV2 reverse transcriptase at 200 ug/ml
# [4] = Inhibition of HIV2 reverse transcriptase; parameters: species or system Human immunodeficiency virus 2
# [5] = system: Human immunodeficiency virus 1; test: Inhibition of HIV1 reverse transcriptase mutant at 200 ug/ml
# [6] = Inhibition of HIV1 reverse transcriptase mutant; parameters: species or system Human immunodeficiency virus 1
# [7] = system: Avian myeloblastosis virus; test: Inhibition of AMV reverse transcriptase at 200 ug/ml
# [8] = Inhibition of AMV reverse transcriptase; parameters: species or system Avian myeloblastosis virus
# [9] = Inhibition of DNA polymerase alpha at 200 ug/ml
# [10] = Inhibition of DNA polymerase alpha
# [11] = Inhibition of DNA polymerase beta at 200 ug/ml
# [12] = Inhibition of DNA polymerase beta
# [13] = Inhibition of RNA polymerase at 200 ug/ml
# [14] = Inhibition of RNA polymerase
# [15] = Inhibition of DNA dependent DNA polymerase at 200 ug/ml
# [16] = Inhibition of DNA dependent DNA polymerase
# [17] = Inhibition of RNaseH at 200 ug/ml
# [18] = Inhibition of RNaseH
smiles,measurement,setting,value
C=C(C)[C@@H]1CC[C@@H]2[C@]3(CC[C@]4(C)[C@@H]([C@H](C)CC/C=C(/C)C(=O)O)CC[C@@]24C)C[C@]13CCC(=O)O [NIGRANOIC ACID],inhibition,[1],99.4%
same,pIC50,[2],3.80
same,inhibition,[3],76.7%
same,pIC50,[4],3.45
same,inhibition,[5],71%
same,pIC50,[6],3.41
same,inhibition,[7],99.2%
same,pIC50,[8],3.62
same,inhibition,[9],46.2%
same,pIC50,[10],< 3.37
same,inhibition,[11],99.1%
same,pIC50,[12],4.78
same,inhibition,[13],75.4%
same,pIC50,[14],3.73
same,inhibition,[15],96.7%
same,pIC50,[16],4.39
same,inhibition,[17],6.8%
same,pIC50,[18],< 3.37
